In ChEMBL document CHEMBL3885881, “DrugMatrix”:

Species on record: Rattus norvegicus
Experiment: DrugMatrix - Regimen: Daily Repeat
Type: toxicity, organism-based, Sprague-Dawley
Design: regimen Daily Repeat, gender Male, age 6-8 weeks
Settings: in vivo, po, route oral GAVAGE, vehicle .5 % CMC; for ABSOLUTE BASOPHIL / ABSOLUTE EOSINOPHIL / ABSOLUTE LYMPHOCYTE / ABSOLUTE MONOCYTE / ABSOLUTE SEGMENTED NEUTROPHIL / BASOPHIL / EOSINOPHIL / ERYTHROCYTE COUNT / HEMATOCRIT / HEMOGLOBIN / LEUKOCYTE COUNT / LYMPHOCYTE / MEAN CORPUSCULAR HEMOGLOBIN / MEAN CORPUSCULAR HEMOGLOBIN CONCENTRATION / MEAN CORPUSCULAR VOLUME / MONOCYTE / NEUTROPHIL / NUCLEATED RED BLOOD CELLS / PLATELET COUNT: tissue Blood; for ALANINE AMINOTRANSFERASE / ALBUMIN / ALKALINE PHOSPHATASE / ASPARTATE AMINOTRANSFERASE / BLOOD UREA NITROGEN / CARBON DIOXIDE / CHLORIDE / CHOLESTEROL / CREATINE PHOSPHOKINASE / CREATININE / GLUCOSE / LACTATE DEHYDROGENASE / LIPASE / PHOSPHORUS / POTASSIUM / SODIUM / TOTAL BILIRUBIN / TOTAL PROTEIN / URIC ACID: tissue Plasma
[1] = 0 mg/kg, 72 h, dose level Control, time 3 day
[2] = 0 mg/kg, 120 h, dose level Control, time 5 day
[3] = 10 mg/kg, 72 h, dose level Low, time 3 day

O=C1CN=C(c2ccccc2Cl)c2cc([N+](=O)[O-])ccc2N1 [CLONAZEPAM]
ABSOLUTE BASOPHIL [1]: 0 CELLS/uL
ABSOLUTE EOSINOPHIL [1]: 0 CELLS/uL
ABSOLUTE LYMPHOCYTE [1]: 12191.17 CELLS/uL
ABSOLUTE MONOCYTE [1]: 183.17 CELLS/uL
ABSOLUTE SEGMENTED NEUTROPHIL [1]: 1192.33 CELLS/uL
BASOPHIL [1]: 0%
EOSINOPHIL [1]: 0%
ERYTHROCYTE COUNT [1]: 5.51 x10E6/uL
HEMATOCRIT [1]: 35.45%
HEMOGLOBIN [1]: 13.82 G/DL
LEUKOCYTE COUNT [1]: 13.57 x10E3/uL
LYMPHOCYTE [1]: 89.83%
MEAN CORPUSCULAR HEMOGLOBIN [1]: 25.1 pg
MEAN CORPUSCULAR HEMOGLOBIN CONCENTRATION [1]: 38.98 G/DL
MEAN CORPUSCULAR VOLUME [1]: 64.42 fL
MONOCYTE [1]: 1.33%
NEUTROPHIL [1]: 8.83%
NUCLEATED RED BLOOD CELLS [1]: 0 /100WBC
PLATELET COUNT [1]: 1118.17 x10E3/uL
ALANINE AMINOTRANSFERASE [1]: 55 u/L
ALBUMIN [1]: 4.15 G/DL
ALKALINE PHOSPHATASE [1]: 449.5 u/L
ASPARTATE AMINOTRANSFERASE [1]: 112.83 u/L
BLOOD UREA NITROGEN [1]: 17.33 mg/dL
CARBON DIOXIDE [1]: 29.5 mmol/L
CHLORIDE [1]: 101 MEQ/L
CHOLESTEROL [1]: 70 mg/dL
CREATINE PHOSPHOKINASE [1]: 1325.83 u/L
CREATININE [1]: 0.18 mg/dL
GLUCOSE [1]: 171.5 mg/dL
LACTATE DEHYDROGENASE [1]: 386 u/L
LIPASE [1]: 10 u/L
PHOSPHORUS [1]: 11.57 mg/dL
POTASSIUM [1]: 6.21 MEQ/L
SODIUM [1]: 141.65 MEQ/L
TOTAL BILIRUBIN [1]: 0.15 mg/dL
TOTAL PROTEIN [1]: 5.75 G/DL
URIC ACID [1]: 1.28 mg/dL
ABSOLUTE BASOPHIL [2]: 0 CELLS/uL
ABSOLUTE EOSINOPHIL [2]: 138.17 CELLS/uL
ABSOLUTE LYMPHOCYTE [2]: 13283.17 CELLS/uL
ABSOLUTE MONOCYTE [2]: 303.83 CELLS/uL
ABSOLUTE SEGMENTED NEUTROPHIL [2]: 1308.17 CELLS/uL
BASOPHIL [2]: 0%
EOSINOPHIL [2]: 1%
ERYTHROCYTE COUNT [2]: 5.32 x10E6/uL
HEMATOCRIT [2]: 33.8%
HEMOGLOBIN [2]: 13.63 G/DL
LEUKOCYTE COUNT [2]: 15.03 x10E3/uL
LYMPHOCYTE [2]: 88.33%
MEAN CORPUSCULAR HEMOGLOBIN [2]: 25.68 pg
MEAN CORPUSCULAR HEMOGLOBIN CONCENTRATION [2]: 40.35 G/DL
MEAN CORPUSCULAR VOLUME [2]: 63.67 fL
MONOCYTE [2]: 1.83%
NEUTROPHIL [2]: 8.83%
NUCLEATED RED BLOOD CELLS [2]: 0 /100WBC
PLATELET COUNT [2]: 1097.5 x10E3/uL
ALANINE AMINOTRANSFERASE [2]: 54.5 u/L
ALBUMIN [2]: 4.27 G/DL
ALKALINE PHOSPHATASE [2]: 337 u/L
ASPARTATE AMINOTRANSFERASE [2]: 94.67 u/L
BLOOD UREA NITROGEN [2]: 17 mg/dL
CARBON DIOXIDE [2]: 28.33 mmol/L
CHLORIDE [2]: 101.5 MEQ/L
CHOLESTEROL [2]: 71.33 mg/dL
CREATINE PHOSPHOKINASE [2]: 628.17 u/L
CREATININE [2]: 0.19 mg/dL
GLUCOSE [2]: 177.83 mg/dL
LACTATE DEHYDROGENASE [2]: 500.5 u/L
LIPASE [2]: 9.5 u/L
PHOSPHORUS [2]: 12.3 mg/dL
POTASSIUM [2]: 5.63 MEQ/L
SODIUM [2]: 143.03 MEQ/L
TOTAL BILIRUBIN [2]: 0.2 mg/dL
TOTAL PROTEIN [2]: 6.02 G/DL
URIC ACID [2]: 1.5 mg/dL
ABSOLUTE BASOPHIL [3]: 0 CELLS/uL
ABSOLUTE EOSINOPHIL [3]: 0 CELLS/uL
ABSOLUTE LYMPHOCYTE [3]: 12266.67 CELLS/uL
ABSOLUTE MONOCYTE [3]: 135.33 CELLS/uL
ABSOLUTE SEGMENTED NEUTROPHIL [3]: 664.67 CELLS/uL
BASOPHIL [3]: 0%
EOSINOPHIL [3]: 0%
ERYTHROCYTE COUNT [3]: 5.48 x10E6/uL
HEMATOCRIT [3]: 35.23%
HEMOGLOBIN [3]: 13.73 G/DL
LEUKOCYTE COUNT [3]: 13.07 x10E3/uL
LYMPHOCYTE [3]: 93.33%
MEAN CORPUSCULAR HEMOGLOBIN [3]: 25.1 pg
MEAN CORPUSCULAR HEMOGLOBIN CONCENTRATION [3]: 38.97 G/DL
MEAN CORPUSCULAR VOLUME [3]: 64.3 fL
MONOCYTE [3]: 1.33%
NEUTROPHIL [3]: 5.33%
NUCLEATED RED BLOOD CELLS [3]: 0 /100WBC
PLATELET COUNT [3]: 1157.67 x10E3/uL
ALANINE AMINOTRANSFERASE [3]: 58.33 u/L
ALBUMIN [3]: 4.1 G/DL
ALKALINE PHOSPHATASE [3]: 310 u/L
ASPARTATE AMINOTRANSFERASE [3]: 85.33 u/L
BLOOD UREA NITROGEN [3]: 17.67 mg/dL
CARBON DIOXIDE [3]: 27.67 mmol/L
CHLORIDE [3]: 101.67 MEQ/L
CHOLESTEROL [3]: 69.33 mg/dL
CREATINE PHOSPHOKINASE [3]: 333.33 u/L
CREATININE [3]: 0.16 mg/dL
GLUCOSE [3]: 163 mg/dL
LACTATE DEHYDROGENASE [3]: 104.33 u/L
LIPASE [3]: 10 u/L
PHOSPHORUS [3]: 11.3 mg/dL
POTASSIUM [3]: 6.13 MEQ/L
SODIUM [3]: 142.3 MEQ/L
TOTAL BILIRUBIN [3]: 0.1 mg/dL
TOTAL PROTEIN [3]: 5.6 G/DL
URIC ACID [3]: 1.73 mg/dL
